How the values were obtained:
[1] = system: Tyrosine-protein kinase ABL1 (Homo sapiens), P00519 [T315I]
[2] = biological target: 5'-AMP-activated protein kinase catalytic subunit alpha-2 (Homo sapiens) (UniProt P54646)
[3] = biological target: Calcium/calmodulin-dependent protein kinase type 1 (Homo sapiens) (UniProt Q14012)
[4] = biological target: Casein kinase I isoform gamma-1 (Homo sapiens) (UniProt Q9HCP0)
[5] = biological target: Death-associated protein kinase 3 (Homo sapiens) (UniProt O43293)
Chain of Death-associated protein kinase 3 (Homo sapiens) (O43293 whole entry, looked up): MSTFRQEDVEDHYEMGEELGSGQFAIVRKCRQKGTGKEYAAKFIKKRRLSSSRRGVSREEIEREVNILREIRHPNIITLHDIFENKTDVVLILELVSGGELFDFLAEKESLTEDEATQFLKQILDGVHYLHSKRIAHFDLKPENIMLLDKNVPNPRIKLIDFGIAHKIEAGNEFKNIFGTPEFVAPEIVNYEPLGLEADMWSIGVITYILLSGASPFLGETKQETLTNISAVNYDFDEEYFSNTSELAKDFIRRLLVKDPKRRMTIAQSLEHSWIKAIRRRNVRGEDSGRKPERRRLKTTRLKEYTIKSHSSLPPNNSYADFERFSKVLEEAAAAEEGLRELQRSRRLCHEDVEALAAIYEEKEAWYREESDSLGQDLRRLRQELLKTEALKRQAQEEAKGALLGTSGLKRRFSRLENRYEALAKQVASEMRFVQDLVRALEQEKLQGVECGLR

[6] = biological target: Mitogen-activated protein kinase 15 (Homo sapiens) (UniProt Q8TD08)
Chain of Mitogen-activated protein kinase 15 (Homo sapiens) (Q8TD08 whole entry): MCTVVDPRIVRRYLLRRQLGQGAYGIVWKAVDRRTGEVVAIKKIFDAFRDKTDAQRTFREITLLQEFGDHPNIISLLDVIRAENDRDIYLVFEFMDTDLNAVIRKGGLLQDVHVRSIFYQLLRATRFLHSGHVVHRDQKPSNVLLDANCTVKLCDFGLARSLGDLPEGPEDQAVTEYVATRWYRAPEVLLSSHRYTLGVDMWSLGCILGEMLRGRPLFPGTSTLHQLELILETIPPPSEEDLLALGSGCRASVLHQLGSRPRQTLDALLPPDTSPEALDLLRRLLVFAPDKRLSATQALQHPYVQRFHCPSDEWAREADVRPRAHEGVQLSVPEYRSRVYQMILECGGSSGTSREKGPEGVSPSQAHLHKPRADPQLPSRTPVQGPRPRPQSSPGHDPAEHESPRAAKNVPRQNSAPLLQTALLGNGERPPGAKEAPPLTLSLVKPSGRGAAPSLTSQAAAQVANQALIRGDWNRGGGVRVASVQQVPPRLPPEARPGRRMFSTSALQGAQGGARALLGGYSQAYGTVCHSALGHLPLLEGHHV

[7] = biological target: Interleukin-1 receptor-associated kinase 4 (Homo sapiens) (UniProt Q9NWZ3)
[8] = biological target: Serine/threonine-protein kinase STK11 (Homo sapiens) (UniProt Q15831)
[9] = biological target: Mitogen-activated protein kinase kinase kinase 15 (Homo sapiens) (UniProt Q6ZN16)
[10] = biological target: MAP/microtubule affinity-regulating kinase 3 (Homo sapiens) (UniProt P27448)
[11] = biological target: Dual specificity mitogen-activated protein kinase kinase 1 (Homo sapiens) (UniProt Q02750)
[12] = biological target: Dual specificity mitogen-activated protein kinase kinase 4 (Homo sapiens) (UniProt P45985)
[13] = system: Hepatocyte growth factor receptor (Homo sapiens), P08581 [Y1235D]
[14] = biological target: Mitogen-activated protein kinase kinase kinase 9 (Homo sapiens) (UniProt P80192)
Chain of Mitogen-activated protein kinase kinase kinase 9 (Homo sapiens) (P80192 whole entry, looked up): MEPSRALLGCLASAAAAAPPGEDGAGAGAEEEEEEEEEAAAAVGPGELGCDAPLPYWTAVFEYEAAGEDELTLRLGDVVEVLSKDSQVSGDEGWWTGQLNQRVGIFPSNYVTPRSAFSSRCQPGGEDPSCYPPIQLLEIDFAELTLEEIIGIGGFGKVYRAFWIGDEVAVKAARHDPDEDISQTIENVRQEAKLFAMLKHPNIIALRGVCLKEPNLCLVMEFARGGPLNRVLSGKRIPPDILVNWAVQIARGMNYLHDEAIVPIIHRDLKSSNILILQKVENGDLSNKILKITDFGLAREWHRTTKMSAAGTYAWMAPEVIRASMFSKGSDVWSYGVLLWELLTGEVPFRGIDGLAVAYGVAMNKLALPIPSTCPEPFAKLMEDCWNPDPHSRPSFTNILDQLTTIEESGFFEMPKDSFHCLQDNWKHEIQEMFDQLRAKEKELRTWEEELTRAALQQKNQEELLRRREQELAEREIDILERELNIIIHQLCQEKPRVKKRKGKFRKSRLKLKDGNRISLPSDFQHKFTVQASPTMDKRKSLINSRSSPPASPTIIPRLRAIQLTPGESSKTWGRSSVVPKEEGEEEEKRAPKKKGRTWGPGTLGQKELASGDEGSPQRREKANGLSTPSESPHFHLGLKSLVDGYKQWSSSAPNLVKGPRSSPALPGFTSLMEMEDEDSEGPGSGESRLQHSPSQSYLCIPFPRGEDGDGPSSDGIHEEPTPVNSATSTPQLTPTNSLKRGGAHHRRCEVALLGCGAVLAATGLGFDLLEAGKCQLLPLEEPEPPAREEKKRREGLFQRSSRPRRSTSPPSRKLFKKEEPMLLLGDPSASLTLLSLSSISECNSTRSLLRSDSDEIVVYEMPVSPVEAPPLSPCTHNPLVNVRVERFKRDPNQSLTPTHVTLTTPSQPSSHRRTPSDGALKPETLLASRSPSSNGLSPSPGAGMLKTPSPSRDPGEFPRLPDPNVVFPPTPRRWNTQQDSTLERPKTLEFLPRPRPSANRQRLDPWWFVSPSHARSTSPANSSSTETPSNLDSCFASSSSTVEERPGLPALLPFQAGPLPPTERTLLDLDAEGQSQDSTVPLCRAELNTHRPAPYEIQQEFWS

[15] = biological target: T1, Serine/threonine-protein kinase 3 (Homo sapiens) (UniProt Q13188)
T1 sequence (whole entry): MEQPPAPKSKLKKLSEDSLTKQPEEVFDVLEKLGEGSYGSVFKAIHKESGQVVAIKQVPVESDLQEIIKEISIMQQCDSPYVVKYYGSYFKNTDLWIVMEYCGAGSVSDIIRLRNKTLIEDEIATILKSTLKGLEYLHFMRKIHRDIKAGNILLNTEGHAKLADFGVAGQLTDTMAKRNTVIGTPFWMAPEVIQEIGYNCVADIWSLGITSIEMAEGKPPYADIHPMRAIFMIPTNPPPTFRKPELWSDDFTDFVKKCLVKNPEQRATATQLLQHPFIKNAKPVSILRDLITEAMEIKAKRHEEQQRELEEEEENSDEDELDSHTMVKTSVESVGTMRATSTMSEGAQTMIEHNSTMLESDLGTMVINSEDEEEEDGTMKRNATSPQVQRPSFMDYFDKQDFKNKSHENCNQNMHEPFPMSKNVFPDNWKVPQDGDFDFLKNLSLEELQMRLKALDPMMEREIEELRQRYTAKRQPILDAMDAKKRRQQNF

[16] = biological target: Mitogen-activated protein kinase 14 (Homo sapiens) (UniProt Q16539)
[17] = system: Phosphatidylinositol 4,5-bisphosphate 3-kinase catalytic subunit alpha isoform (Homo sapiens), P42336 [Q546K]
Chain of Phosphatidylinositol 4,5-bisphosphate 3-kinase catalytic subunit alpha isoform (Homo sapiens), P42336 [Q546K] (P42336 whole entry Q546K, canonical isoform): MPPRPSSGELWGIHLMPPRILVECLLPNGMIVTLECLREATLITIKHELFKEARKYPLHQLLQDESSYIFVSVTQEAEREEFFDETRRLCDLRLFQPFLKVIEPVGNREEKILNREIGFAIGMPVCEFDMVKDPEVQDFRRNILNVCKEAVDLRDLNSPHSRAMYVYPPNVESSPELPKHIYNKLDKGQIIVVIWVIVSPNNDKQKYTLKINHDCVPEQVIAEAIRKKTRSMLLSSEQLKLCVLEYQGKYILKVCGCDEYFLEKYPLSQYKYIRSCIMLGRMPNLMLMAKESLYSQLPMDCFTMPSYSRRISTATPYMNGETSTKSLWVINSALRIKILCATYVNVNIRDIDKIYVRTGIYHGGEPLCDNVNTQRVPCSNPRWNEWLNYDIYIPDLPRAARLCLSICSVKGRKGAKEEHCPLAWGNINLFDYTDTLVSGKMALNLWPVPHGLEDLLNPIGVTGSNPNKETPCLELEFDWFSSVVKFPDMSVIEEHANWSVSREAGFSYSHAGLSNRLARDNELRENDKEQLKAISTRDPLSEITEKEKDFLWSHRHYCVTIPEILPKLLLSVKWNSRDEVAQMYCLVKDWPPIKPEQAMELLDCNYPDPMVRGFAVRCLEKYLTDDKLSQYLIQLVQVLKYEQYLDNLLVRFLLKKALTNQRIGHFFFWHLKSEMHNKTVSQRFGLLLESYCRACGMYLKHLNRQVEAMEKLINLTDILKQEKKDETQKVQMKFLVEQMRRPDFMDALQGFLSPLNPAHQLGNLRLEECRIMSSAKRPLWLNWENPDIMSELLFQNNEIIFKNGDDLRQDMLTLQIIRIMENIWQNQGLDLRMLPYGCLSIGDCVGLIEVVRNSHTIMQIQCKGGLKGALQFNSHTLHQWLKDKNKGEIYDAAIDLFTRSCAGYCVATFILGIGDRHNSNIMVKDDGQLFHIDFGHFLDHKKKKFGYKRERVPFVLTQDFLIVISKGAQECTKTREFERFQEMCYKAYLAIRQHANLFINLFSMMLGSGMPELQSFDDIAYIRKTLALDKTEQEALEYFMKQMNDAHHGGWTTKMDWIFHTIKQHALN

[18] = biological target: Serine/threonine-protein kinase pim-2 (Homo sapiens) (UniProt Q9P1W9)
[19] = biological target: T2, cGMP-dependent protein kinase 2 (Homo sapiens) (UniProt Q13237)
T2 sequence (whole entry): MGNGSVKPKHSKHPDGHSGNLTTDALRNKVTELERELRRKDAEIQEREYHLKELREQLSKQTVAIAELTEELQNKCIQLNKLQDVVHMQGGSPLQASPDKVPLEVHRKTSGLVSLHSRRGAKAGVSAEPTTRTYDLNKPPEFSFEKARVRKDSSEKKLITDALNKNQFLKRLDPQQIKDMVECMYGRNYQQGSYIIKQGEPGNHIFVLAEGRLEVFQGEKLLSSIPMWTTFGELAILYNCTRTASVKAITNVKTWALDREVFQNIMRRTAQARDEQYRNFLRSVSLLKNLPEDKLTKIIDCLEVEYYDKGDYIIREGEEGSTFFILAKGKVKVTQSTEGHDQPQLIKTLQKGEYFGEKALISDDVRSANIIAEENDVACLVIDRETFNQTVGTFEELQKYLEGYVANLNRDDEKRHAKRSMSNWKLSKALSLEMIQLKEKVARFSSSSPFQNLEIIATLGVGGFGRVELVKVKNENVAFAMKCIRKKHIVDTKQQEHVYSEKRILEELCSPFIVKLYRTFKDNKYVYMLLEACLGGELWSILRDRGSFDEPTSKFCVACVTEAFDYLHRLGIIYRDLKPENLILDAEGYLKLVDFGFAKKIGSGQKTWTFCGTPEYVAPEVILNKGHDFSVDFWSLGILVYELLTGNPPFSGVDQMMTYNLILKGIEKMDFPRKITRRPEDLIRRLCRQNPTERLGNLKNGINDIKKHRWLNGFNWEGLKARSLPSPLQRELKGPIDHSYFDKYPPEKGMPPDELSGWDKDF

[20] = biological target: Receptor-interacting serine/threonine-protein kinase 4 (Homo sapiens) (UniProt P57078)
Chain of Receptor-interacting serine/threonine-protein kinase 4 (Homo sapiens) (P57078 whole entry): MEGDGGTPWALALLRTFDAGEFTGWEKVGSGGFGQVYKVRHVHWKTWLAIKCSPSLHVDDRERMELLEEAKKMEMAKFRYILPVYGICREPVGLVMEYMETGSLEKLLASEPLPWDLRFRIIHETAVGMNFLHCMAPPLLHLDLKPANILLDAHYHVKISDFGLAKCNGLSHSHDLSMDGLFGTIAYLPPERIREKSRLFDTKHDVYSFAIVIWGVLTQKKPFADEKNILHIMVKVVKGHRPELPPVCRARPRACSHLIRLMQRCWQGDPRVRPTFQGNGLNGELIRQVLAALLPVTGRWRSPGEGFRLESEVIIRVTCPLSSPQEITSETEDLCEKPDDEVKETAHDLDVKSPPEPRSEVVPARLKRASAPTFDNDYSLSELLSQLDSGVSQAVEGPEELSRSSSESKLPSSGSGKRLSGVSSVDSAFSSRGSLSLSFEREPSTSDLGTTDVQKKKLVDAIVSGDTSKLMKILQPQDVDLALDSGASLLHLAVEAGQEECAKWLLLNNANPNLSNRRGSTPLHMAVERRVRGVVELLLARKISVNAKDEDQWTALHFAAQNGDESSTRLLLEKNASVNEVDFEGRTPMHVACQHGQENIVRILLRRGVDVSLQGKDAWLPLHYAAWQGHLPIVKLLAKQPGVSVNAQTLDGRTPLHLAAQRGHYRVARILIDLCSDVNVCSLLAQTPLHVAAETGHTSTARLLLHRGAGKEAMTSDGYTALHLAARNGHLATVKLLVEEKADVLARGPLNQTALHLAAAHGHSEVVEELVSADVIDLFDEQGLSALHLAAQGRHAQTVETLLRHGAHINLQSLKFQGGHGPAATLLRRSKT

[21] = biological target: Tyrosine-protein kinase SYK (Homo sapiens) (UniProt P43405)
[22] = biological target: T3, Muscarinic acetylcholine receptor M1 (Homo sapiens) (UniProt P11229); conditions: Compound concentration 10.0 uM
T3 sequence (whole entry): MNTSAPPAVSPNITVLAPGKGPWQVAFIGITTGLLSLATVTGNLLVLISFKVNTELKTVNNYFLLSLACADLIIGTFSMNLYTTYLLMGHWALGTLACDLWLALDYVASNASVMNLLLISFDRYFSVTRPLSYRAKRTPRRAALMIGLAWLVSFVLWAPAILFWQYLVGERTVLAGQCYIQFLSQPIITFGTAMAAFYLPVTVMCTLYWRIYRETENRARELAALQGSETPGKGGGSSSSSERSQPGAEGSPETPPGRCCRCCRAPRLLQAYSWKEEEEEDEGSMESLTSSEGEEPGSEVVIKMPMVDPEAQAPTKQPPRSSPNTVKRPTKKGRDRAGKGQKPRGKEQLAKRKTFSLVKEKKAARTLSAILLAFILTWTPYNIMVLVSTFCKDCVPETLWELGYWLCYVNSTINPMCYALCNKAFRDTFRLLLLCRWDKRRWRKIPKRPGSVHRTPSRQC

[23] = Compound concentration 1000.0 nM
[24] = Compound concentration 100.0 nM

Chain of 5'-AMP-activated protein kinase catalytic subunit alpha-2 (Homo sapiens) (P54646 whole entry, looked up): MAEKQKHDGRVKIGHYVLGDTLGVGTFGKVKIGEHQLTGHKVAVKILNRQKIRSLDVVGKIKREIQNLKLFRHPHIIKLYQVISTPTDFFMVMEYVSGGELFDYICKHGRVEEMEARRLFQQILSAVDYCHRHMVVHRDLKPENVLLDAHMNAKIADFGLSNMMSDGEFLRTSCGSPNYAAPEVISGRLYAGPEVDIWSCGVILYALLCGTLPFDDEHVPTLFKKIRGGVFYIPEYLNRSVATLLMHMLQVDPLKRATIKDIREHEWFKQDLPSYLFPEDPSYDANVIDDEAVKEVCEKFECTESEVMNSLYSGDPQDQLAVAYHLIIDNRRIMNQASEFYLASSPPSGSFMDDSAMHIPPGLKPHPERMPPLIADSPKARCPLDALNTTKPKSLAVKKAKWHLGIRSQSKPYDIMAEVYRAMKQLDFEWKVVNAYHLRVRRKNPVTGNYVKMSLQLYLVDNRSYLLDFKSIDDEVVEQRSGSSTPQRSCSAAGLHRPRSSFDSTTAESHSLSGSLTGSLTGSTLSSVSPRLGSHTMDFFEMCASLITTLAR
Chain of Casein kinase I isoform gamma-1 (Homo sapiens) (Q9HCP0 whole entry, looked up, canonical isoform): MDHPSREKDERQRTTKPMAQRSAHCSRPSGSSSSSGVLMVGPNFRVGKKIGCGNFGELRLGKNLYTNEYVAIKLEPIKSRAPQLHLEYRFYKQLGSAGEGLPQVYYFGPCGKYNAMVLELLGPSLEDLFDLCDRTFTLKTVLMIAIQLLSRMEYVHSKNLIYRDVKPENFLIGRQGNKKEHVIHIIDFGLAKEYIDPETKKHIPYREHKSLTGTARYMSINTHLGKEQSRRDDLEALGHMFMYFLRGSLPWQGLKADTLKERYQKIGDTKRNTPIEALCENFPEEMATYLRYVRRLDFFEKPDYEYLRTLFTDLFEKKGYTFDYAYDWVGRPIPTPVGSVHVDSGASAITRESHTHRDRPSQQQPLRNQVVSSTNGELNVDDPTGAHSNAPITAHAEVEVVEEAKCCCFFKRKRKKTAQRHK

Q: With `C[C@@H]1CN(c2cc(-c3nn(C)c4ccc(OC5(C)CC5)cc34)ncn2)C[C@H](C)O1` [MLi-2-NC] as the molecule, how does the residual activity [1, 23] read?
A: Its residual activity is 74%.

Q: And the residual activity [2, 23]?
A: Its residual activity is 100%.

Q: What about the residual activity [3, 23] of the same molecule?
A: Its residual activity is 100%.

Q: And the residual activity [4, 23]?
A: Its residual activity is 89%.

Q: What about the residual activity [5, 23] of the same molecule?
A: The residual activity was 89%.

Q: What about the residual activity [6, 23] of the same molecule?
A: Its residual activity is 72%.

Q: What about the residual activity [7, 23] of the same molecule?
A: The residual activity was 76%.

Q: What about the residual activity [8, 23] of the same molecule?
A: The residual activity was 94%.

Q: And the residual activity [9, 23]?
A: Its residual activity is 80%.

Q: What about the residual activity [10, 23] of the same molecule?
A: Its residual activity is 100%.

Q: And the residual activity [11, 23]?
A: Its residual activity is 74%.

Q: And the residual activity [12, 23]?
A: Its residual activity is 82%.

Q: What about the residual activity [13, 23] of the same molecule?
A: The residual activity was 87%.

Q: What about the residual activity [14, 23] of the same molecule?
A: The residual activity was 100%.

Q: And the residual activity [15, 23]?
A: Its residual activity is 100%.

Q: And the residual activity [16, 23]?
A: Its residual activity is 100%.

Q: What about the residual activity [17, 23] of the same molecule?
A: The residual activity was 39%.

Q: What about the residual activity [18, 23] of the same molecule?
A: Its residual activity is 100%.

Q: What about the residual activity [19, 23] of the same molecule?
A: The residual activity was 85%.

Q: What about the residual activity [20, 23] of the same molecule?
A: Its residual activity is 85%.

Q: And the residual activity [21, 23]?
A: The residual activity was 89%.

Q: What about the inhibition [22] of the same molecule?
A: Its inhibition is -1.02%.

Q: How did the residual activity [1, 24] turn out when `C[C@@H]1CN(c2cc(-c3n[nH]c4ccc(OC5(C)CC5)cc34)ncn2)C[C@H](C)O1` [MLi-2] was run?
A: Its residual activity is 86%.

Q: What about the residual activity [2, 24] of the same molecule?
A: The residual activity was 100%.

Q: And the residual activity [3, 24]?
A: The residual activity was 100%.

Q: And the residual activity [4, 24]?
A: The residual activity was 100%.

Q: And the residual activity [5, 24]?
A: Its residual activity is 96%.

Q: What about the residual activity [6, 24] of the same molecule?
A: Its residual activity is 81%.

Q: What about the residual activity [7, 24] of the same molecule?
A: The residual activity was 90%.

Q: And the residual activity [8, 24]?
A: The residual activity was 83%.

Q: And the residual activity [9, 24]?
A: Its residual activity is 67%.

Q: What about the residual activity [10, 24] of the same molecule?
A: The residual activity was 73%.

Q: And the residual activity [11, 24]?
A: The residual activity was 88%.

Q: What about the residual activity [12, 24] of the same molecule?
A: The residual activity was 73%.

Q: And the residual activity [13, 24]?
A: The residual activity was 92%.

Q: And the residual activity [14, 24]?
A: The residual activity was 100%.

Q: And the residual activity [15, 24]?
A: The residual activity was 78%.

Q: What about the residual activity [16, 24] of the same molecule?
A: The residual activity was 95%.

Q: And the residual activity [17, 24]?
A: The residual activity was 69%.

Q: And the residual activity [18, 24]?
A: The residual activity was 88%.

Q: And the residual activity [19, 24]?
A: The residual activity was 79%.

Q: And the residual activity [20, 24]?
A: The residual activity was 48%.

Q: And the residual activity [21, 24]?
A: Its residual activity is 96%.

Q: What about the inhibition [22] of the same molecule?
A: Its inhibition is 3.04%.
